Measured values reported in patent US20250127908A1, “HETEROBIFUNCTIONAL CONDITIONAL INHIBITORS” (Kolm Therapeutics Inc., priority 2023, published 2025).

How the values were obtained:
[1] = system: VCaP cells; assay: VCaP growth inhibition assay (CTG); format: cell-based; conditions: Homo sapiens, 216 h, 30 pM R1881, 9-day treatment, CTG luminescence
Protocol: Example B-2: VCaP Growth Inhibition Assay
VCaP cells (ATCC Cat #CRL-2876) are plated at 1×10^4 cells per well of a white plastic 96-well cluster plate (Thermo Scientific Nunc Cat #165306) in 100 uL phenol red-free DMLEM (Gibco Cat #21063-029) media with […] (Omega Scientific Cat #FB-04). Cluster plates are returned to the incubator (37*C/5% CO2) for 72 hours prior to treatment. Just prior to treatment, 100 uL of phenol red-free DMEM/5% CSS and 60 pM Ri881 (Sigma Cat #R0908-10 mg) was added to each well of the cluster plates (Final R1881 concentration=30 pM). Compounds (200×) were added to each well in a volume of 1 uL, with serial dilutions (1:5) from 20 uM to 2 pM (final concentrations in well are 100 nM to 10 fMV). Cluster plates are returned to the incubator for 9 days.
(§1) After the 9-day treatment period, media was removed from the cluster plates by inversion and 100 uL room temperature CTG reagent (Promega Cat #G7573) is added to each well. The cluster plates are placed on a shaker and incubated at room temperature for 20 minutes. Following this shaking/incubation, cluster plates are read on a luminometer (BMG ClarioStar). IC50 values are obtained by graphing the RLU data vs. compound concentration with nonlinear regression 4-parameter logistic curves (GraphPad Prism).

[2] = system: HEK-293 cells; assay: HEK-293 growth inhibition assay (CTG); format: cell-based; conditions: Homo sapiens, HEK293, 72 h, 3-day treatment, CTG luminescence
Protocol: Example B-4: HEK-293 Growth Inhibition Assay
HEK-293 cells (ATCC Cat #CRL-1573) are plated at 3×10^3 cells per well of a white plastic 96-well cluster plate (Thermo Scientific Nunc Cat #165306) in 200 uL DMLEM (ATCC Cat #30-2002) media with 10% FBS (Gibco Cat #26140-079). Cluster plates are returned to the incubator (37*C/5% CO2) for 24 hours prior to treatment. Compounds (200×) were added to each well in a volume of 1 uL, with serial dilutions (1:5) from 2 mM to 200 pM (final concentrations in well are 10 uM to 1 pM). Cluster plates are returned to the incubator for 3 days.
as §1, with “3-day” for “9-day”, “period, 100 uL” for “period,”, “each well” for “the cluster plates”, “aspiration” for “inversion”, “added back” for “added”, “ICs50” for “IC50”

CNC(=O)N1CCc2c(c(N3CCCc4cc(-c5cnn(C)c5)c(C(F)F)cc43)nn2C2CCN(C(=O)COCCOCC3CCN(CC4CCN(c5ccc([C@H]6c7ccc(O)cc7CC[C@H]6c6ccccc6)cc5)CC4)CC3)CC2)C1 [Compound 10, 3-[7-(difluoromethyl)-6-(1-methylpyrazol-4-yl)-3,4-dihydro-2H-quinolin-1-yl]-1-[1-[2-[2-[[1-[[1-[4-(6-hydroxy-2-phenyl-tetralin-1-yl)phenyl]-4-piperidyl]methyl]-4-piperidyl]methoxy]ethoxy]acetyl]-4-piperidyl]-N-methyl-6,7-dihydro-4H-pyrazolo[4,3-c]pyridine-5-carboxamide]
IC50 [1]: 1 to 100 nM | IC50 [2]: > 1000 nM
